These results are taken from ChEMBL document CHEMBL1201862, “PubChem BioAssay data set” (2004).

pIC50: −log10 of the molar value. Active and inactive are the calls of the source. Bounds are passed on as bounds.

For assay [1], the target named is FAD-linked sulfhydryl oxidase ALR (Homo sapiens, UniProt P55789). Briefly: inhibitors of human ALR sulfhydryl oxidase, dose response, biochemical, H2O2 detection, luminescence, cherry-pick (AID 493248).
In assay [2] the target is T1, Heat shock factor protein 1 (Mus musculus, UniProt P38532).
T1 sequence (P38532 whole entry): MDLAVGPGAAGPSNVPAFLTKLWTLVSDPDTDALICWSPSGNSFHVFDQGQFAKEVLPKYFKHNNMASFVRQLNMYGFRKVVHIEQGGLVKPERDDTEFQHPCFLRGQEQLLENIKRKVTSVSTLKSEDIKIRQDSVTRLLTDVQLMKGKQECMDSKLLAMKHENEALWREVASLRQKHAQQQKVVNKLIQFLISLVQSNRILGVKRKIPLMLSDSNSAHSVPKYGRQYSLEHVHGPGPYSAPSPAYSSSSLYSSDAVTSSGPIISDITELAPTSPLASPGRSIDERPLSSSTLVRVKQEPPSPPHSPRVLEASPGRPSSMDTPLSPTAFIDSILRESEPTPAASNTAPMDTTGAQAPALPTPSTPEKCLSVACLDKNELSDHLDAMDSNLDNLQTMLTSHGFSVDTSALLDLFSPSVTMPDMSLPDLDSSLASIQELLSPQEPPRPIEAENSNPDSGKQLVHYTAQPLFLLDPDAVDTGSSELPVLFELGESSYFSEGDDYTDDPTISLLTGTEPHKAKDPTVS
Briefly: HSF1 potentiators in luciferase reporter cells, confirmation, cell-based, NIH3T3, luminescence, dose retest (AID 435004).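 Also: stress induced by proteasome inhibitor MG132 added 30 min after compound; luciferase reporter driven by HSF1 response element in NIH3T3 cells; actives raise luminescence as potentiators of the MG132 stress response.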 Type of assay: functional.

A further assay concerns the target Wee1-like protein kinase (Homo sapiens, UniProt P30291). Briefly: Dose Response Cell-based Assay for Inhibitors of Wee1 Degradation. [Related pubchem assays: 1410, 1321 ]. It counts as functional.
Assay [3] deals with G2/mitotic-specific cyclin-B1 (Homo sapiens, UniProt P14635). In words: Counterscreen assay for inhibitors of Wee1 degradation: dose response cell-based assay to identify inhibitors of cyclin B degradation. [Related pubchem assays: 1410, 1321 ]. Type of assay: functional.
The target in assay [4] is Dual specificity protein phosphatase 3 (Homo sapiens, UniProt P51452). Briefly: VHR1 inhibitor Ki determination, SAR follow-up, biochemical, colorimetric (AID 2004).
The nature of assay [5]: HIV-1 Env-mediated cell fusion inhibitors, dose response, CCR5-tropic Env (AID 2279). It counts as functional.
The target of assay [6] is T2, Dual specificity protein phosphatase 6 (Rattus norvegicus, UniProt Q64346).
T2 sequence (Q64346 whole entry): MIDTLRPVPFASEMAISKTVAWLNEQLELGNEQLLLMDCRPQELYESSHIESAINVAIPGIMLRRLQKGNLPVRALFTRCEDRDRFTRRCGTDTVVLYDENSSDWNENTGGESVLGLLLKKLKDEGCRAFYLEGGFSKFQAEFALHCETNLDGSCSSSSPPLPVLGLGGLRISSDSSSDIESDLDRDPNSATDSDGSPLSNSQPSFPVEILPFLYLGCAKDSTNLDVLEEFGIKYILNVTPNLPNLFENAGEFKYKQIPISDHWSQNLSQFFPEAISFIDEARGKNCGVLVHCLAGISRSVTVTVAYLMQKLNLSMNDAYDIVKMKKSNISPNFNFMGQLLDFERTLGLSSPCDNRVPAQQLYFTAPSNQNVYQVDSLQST
Type of assay: functional.

For assay [7], the target named is Heat shock cognate 71 kDa protein (Homo sapiens, UniProt P11142). In words: In Vitro Hsc70 Dose Response Fluorescence Polarization Assay. [Related pubchem assays: 1072 ].
Assay [8] deals with Heat shock 70 kDa protein 1A (Homo sapiens, UniProt P0DMV8). In words: Hsp70 inhibitors, SAR follow-up, biochemical, fluorescence polarization (AID 1072).
Assay [9] addresses Glyceraldehyde-3-phosphate dehydrogenase (Homo sapiens, UniProt P04406).
The target of assay [10] is T3, Tyrosine-protein phosphatase non-receptor type 7 (Homo sapiens, UniProt P35236).
T3 sequence (P35236 whole entry): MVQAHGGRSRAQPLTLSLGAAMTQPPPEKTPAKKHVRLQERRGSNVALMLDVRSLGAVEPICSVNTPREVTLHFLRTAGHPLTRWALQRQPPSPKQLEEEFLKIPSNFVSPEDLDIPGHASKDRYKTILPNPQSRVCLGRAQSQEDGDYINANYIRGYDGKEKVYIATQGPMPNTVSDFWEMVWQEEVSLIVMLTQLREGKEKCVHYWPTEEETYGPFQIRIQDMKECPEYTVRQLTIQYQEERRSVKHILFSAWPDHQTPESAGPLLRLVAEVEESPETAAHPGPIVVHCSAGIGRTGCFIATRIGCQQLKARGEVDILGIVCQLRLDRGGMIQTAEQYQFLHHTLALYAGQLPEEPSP
It counts as functional.

The target of assay [11] is T2, Dual specificity protein phosphatase 6.
A further assay concerns HT-1080. In words: cytotoxicity in HT1080 fibrosarcoma cells, cell-based, fluorescence readout (AID 620). Type of assay: functional. The conditions noted are these: Homo sapiens.
Assay [12] concerns the target Luciferin 4-monooxygenase (Photinus pyralis, UniProt P08659). In words: Counter Screen for Luciferase-based Assay Positives. [Related pubchem assays: 620, 618, 411 ].
Another assay can be described thus: cells. It counts as functional.
Assay [13] concerns the target Mothers against decapentaplegic homolog 3 (Homo sapiens, UniProt P84022). Briefly: Smad3 binding inhibitors, lysate ELISA, dose response, cell lysate, secondary confirmation, chemiluminescent ELISA, HEK293 lysate (AID 1058). It counts as functional.
In the next assay the target is Cytochrome P450 2C9 (Homo sapiens, UniProt P11712). The note with it: Potency.
Assay [14] deals with T4, Kappa-type opioid receptor (Homo sapiens, UniProt P41145). It counts as functional.
The subject of assay [15] is BJ. Briefly: cytotoxicity toward BJ-TERT-LT-ST fibroblasts, dose response, cell-based, RAS-independent, luminescence (AID 1935).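 Also: BJ fibroblasts immortalized with TERT plus LT and ST oncogenes.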 Type of assay: functional. The conditions noted are these: Homo sapiens.
The nature of assay [16]: Counterscreen for IDE inhibitors: Luminescence-based cell-based high throughput dose response assay to identify compounds that are cytotoxic to HEK cells. [Related pubchem assays: 434962 (Primary screen (IDE inhibitors in singlicate)), 449730 (Counterscreen (Cytotoxicity in triplicate)), 435028 (Confirmation (IDE inhibitors in triplicate)) …. The conditions noted are these: HEK293. It counts as functional.

The test system of assay [17] is BJ. In words: cytotoxicity toward BJ-TERT fibroblasts, dose response, cell-based, RAS-independent, luminescence (AID 1933). Type of assay: functional. The conditions noted are these: Homo sapiens.
Assay [18] can be described thus: cytotoxicity toward DRD oncogenic fibroblasts, dose response, cell-based, non-viral oncogenic, luminescence (AID 1934). It counts as functional. The note with it: Homo sapiens.
In another assay the target is T5, Insulin-degrading enzyme (Homo sapiens, UniProt P14735).
T5 sequence (P14735 whole entry): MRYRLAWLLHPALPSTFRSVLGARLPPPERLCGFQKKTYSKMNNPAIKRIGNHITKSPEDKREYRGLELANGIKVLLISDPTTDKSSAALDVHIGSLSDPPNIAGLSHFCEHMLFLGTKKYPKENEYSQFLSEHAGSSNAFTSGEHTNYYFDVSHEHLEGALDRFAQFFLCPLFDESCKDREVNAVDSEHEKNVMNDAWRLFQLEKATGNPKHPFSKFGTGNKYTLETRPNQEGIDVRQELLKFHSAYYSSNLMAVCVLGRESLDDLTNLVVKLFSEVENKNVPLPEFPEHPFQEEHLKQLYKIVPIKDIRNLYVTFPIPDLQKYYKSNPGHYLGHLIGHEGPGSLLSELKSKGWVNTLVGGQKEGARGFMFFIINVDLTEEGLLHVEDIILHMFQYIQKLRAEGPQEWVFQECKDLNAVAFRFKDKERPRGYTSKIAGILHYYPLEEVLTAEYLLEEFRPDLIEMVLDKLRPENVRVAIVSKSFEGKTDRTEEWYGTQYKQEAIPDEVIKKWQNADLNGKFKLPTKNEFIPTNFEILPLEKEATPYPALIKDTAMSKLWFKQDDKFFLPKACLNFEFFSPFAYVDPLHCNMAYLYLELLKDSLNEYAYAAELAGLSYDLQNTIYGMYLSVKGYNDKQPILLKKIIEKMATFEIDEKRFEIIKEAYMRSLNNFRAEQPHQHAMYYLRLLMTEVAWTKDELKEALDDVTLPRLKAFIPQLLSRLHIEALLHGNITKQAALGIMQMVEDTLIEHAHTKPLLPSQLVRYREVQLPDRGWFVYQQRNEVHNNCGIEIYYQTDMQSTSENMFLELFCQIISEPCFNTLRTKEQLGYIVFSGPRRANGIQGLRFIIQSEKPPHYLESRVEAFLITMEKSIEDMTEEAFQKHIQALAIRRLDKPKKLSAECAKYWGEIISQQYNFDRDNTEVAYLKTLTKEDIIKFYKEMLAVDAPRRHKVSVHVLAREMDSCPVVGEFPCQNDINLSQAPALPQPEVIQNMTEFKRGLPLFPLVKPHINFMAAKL
In words: Dose Response: Fluorescence polarization-based cell-based high throughput dose response assay for inhibitors of insulin-degrading enzyme (IDE). [Related pubchem assays: 434962 (Primary screen (IDE inhibitors in singlicate)), 449730 (Counterscreen (Cytotoxicity in triplicate)), 435028 (Confirmation (IDE inhibitors in triplicate)), 434984 (Summary …. Type of assay: functional.

Assay [19] concerns the target T4, Kappa-type opioid receptor. It counts as functional. This is another data set of the same source.
The target of another assay is Beta-galactosidase (Escherichia coli, UniProt Q8VNN2). Type of assay: functional.
The subject of assay [20] is BJ. Briefly: cells. It counts as functional, cell-based. The conditions noted are these: Homo sapiens.
Assay [21] addresses Melanin-concentrating hormone receptor 1 (Homo sapiens, UniProt Q99705). In words: Late-stage fluorescence-based counterscreen for antagonists of the G-protein coupled receptor 7 (GPR7): cell-based dose response assay to identify antagonists of the melanin-concentrating hormone receptor 1 (MCHR1). [Related pubchem assays (depositor defined):AID1861, AID1880, AID1952, AID2148, AID2251, AID2257, AID485339]. It counts as functional.

Assay [22] addresses T6, Neuropeptide Y receptor type 2 (Homo sapiens, UniProt P49146).
T6 sequence (P49146 whole entry): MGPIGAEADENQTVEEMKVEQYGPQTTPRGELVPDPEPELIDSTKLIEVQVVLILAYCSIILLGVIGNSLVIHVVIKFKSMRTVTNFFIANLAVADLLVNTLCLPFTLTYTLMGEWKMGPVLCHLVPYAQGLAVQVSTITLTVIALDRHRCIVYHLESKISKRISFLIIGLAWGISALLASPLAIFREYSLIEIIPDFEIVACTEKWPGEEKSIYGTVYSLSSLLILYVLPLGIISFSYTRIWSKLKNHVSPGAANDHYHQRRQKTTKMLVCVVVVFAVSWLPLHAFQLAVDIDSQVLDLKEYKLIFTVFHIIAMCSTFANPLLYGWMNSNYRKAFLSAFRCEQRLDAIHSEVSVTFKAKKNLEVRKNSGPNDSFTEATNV
It counts as functional, cell-based.

Assay [23] addresses T7, Neuropeptide Y receptor type 1 (Homo sapiens, UniProt P25929).
T7 sequence (P25929 whole entry): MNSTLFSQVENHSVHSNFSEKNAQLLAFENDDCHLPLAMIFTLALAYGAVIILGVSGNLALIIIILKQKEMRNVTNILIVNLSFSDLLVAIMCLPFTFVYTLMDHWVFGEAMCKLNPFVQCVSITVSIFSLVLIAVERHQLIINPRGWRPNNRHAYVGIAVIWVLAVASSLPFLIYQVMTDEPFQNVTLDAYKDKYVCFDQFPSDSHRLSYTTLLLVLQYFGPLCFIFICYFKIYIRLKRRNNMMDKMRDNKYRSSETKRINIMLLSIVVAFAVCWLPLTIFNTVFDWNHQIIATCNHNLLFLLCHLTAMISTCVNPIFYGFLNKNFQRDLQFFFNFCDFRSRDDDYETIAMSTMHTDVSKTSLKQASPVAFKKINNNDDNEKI
Type of assay: functional.

T4 sequence (P41145 whole entry): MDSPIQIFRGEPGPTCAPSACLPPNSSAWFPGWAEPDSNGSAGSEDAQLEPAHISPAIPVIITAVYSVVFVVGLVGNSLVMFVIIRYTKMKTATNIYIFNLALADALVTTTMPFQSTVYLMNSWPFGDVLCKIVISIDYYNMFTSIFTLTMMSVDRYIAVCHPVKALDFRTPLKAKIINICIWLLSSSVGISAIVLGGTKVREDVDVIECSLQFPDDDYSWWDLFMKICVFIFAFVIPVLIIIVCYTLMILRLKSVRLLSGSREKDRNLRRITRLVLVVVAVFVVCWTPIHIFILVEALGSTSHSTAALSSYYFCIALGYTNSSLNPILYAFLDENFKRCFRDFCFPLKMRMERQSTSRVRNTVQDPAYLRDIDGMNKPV
Cytochrome P450 2C9, sequence (P11712 whole entry): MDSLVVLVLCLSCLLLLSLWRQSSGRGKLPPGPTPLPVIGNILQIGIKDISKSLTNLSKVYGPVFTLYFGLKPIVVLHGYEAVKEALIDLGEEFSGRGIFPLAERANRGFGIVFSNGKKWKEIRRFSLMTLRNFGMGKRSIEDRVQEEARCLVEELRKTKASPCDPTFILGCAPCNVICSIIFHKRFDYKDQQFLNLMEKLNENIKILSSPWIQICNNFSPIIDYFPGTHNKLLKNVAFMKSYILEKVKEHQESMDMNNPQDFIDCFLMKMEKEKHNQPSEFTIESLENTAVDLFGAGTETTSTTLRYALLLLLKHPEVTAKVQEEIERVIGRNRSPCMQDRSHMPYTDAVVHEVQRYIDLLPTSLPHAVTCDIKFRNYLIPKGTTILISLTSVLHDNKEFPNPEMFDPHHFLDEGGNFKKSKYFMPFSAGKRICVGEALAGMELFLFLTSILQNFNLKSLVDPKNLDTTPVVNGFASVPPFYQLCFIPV
Mothers against decapentaplegic homolog 3, sequence (P84022 whole entry): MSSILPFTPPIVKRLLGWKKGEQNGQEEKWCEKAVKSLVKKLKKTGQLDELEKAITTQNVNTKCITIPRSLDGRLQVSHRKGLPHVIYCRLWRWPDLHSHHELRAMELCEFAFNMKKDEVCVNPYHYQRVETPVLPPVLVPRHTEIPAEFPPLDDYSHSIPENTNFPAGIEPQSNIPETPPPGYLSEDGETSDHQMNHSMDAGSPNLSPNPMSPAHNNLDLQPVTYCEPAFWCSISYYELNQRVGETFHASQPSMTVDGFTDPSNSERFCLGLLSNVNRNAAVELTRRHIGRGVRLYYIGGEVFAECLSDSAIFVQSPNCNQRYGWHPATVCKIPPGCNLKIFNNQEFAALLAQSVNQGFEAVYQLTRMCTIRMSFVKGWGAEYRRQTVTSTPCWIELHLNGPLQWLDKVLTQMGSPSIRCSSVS
Glyceraldehyde-3-phosphate dehydrogenase, sequence (P04406 whole entry): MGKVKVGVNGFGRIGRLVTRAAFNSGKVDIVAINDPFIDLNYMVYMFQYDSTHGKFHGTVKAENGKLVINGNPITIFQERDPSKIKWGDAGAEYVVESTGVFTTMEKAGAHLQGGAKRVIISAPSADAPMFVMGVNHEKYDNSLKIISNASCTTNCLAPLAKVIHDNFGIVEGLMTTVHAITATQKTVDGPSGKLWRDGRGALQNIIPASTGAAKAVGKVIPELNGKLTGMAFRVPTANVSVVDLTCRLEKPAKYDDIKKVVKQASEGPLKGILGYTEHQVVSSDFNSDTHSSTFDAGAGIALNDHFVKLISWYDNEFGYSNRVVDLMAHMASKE
Beta-galactosidase, sequence (Q8VNN2 whole entry): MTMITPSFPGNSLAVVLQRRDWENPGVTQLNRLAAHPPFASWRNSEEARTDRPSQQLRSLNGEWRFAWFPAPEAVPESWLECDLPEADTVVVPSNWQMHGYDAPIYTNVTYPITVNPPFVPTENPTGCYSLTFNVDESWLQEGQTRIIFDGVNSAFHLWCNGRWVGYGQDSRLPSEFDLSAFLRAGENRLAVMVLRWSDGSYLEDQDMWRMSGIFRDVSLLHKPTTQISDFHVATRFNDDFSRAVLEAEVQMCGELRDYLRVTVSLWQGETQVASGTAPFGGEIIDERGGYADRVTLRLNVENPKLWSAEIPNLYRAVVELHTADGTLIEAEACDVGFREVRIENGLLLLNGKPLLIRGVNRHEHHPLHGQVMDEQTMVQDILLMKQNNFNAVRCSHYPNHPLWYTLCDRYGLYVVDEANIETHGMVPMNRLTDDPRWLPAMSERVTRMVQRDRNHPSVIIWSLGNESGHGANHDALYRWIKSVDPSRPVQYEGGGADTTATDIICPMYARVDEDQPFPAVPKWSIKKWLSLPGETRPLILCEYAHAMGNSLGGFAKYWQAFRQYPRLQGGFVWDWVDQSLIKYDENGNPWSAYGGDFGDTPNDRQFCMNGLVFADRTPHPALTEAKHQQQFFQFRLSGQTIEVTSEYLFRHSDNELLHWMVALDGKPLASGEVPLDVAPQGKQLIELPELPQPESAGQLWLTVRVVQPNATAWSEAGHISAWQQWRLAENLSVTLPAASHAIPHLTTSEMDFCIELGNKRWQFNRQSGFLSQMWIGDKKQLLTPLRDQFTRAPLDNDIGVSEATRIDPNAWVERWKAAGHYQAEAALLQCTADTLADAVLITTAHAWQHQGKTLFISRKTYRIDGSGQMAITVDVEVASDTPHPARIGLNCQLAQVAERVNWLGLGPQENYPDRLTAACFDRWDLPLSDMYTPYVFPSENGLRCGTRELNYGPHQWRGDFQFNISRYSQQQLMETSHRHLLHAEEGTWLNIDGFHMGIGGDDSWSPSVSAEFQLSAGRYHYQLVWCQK
Wee1-like protein kinase, sequence (P30291 whole entry): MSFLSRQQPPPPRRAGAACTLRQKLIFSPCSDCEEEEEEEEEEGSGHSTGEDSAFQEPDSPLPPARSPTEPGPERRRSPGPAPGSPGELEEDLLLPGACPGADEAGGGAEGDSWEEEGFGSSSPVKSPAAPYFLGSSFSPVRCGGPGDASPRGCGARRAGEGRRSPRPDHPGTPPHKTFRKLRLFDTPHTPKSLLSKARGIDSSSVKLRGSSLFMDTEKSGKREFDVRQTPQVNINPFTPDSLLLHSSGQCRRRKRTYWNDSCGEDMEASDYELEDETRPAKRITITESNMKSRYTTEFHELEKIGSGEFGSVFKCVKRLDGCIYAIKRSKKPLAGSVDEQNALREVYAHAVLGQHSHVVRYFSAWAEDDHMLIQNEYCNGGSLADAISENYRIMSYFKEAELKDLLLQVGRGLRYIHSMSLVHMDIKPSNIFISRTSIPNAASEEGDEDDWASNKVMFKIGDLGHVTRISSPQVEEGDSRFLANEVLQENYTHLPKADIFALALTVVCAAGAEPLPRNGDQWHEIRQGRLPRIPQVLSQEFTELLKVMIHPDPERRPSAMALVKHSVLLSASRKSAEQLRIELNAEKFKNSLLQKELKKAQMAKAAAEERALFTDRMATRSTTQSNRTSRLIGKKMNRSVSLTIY
FAD-linked sulfhydryl oxidase ALR, sequence (P55789 whole entry): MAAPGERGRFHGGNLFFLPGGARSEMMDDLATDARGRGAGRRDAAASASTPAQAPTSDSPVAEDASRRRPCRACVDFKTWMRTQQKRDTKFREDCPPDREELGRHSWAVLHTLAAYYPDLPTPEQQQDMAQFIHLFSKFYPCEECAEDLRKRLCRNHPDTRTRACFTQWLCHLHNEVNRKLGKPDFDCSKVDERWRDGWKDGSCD
Heat shock cognate 71 kDa protein, sequence (P11142 whole entry): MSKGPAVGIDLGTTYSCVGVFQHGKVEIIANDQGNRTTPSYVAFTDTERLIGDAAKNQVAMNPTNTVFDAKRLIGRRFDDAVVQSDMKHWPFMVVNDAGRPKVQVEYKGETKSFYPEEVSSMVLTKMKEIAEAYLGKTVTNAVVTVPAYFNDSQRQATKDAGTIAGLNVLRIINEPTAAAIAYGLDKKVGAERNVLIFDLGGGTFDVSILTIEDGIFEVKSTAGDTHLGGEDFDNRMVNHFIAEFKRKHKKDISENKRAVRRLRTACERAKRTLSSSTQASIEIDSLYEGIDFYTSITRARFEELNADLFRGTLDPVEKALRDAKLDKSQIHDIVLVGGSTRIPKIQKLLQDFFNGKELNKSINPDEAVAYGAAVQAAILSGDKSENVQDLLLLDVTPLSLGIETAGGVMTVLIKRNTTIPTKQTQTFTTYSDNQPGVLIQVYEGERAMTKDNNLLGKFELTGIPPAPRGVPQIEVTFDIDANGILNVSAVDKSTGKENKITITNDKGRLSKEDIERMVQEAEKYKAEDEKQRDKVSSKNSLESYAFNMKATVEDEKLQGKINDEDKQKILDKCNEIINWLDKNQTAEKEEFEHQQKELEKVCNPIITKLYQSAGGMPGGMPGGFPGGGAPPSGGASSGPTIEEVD
Luciferin 4-monooxygenase, sequence (P08659 whole entry): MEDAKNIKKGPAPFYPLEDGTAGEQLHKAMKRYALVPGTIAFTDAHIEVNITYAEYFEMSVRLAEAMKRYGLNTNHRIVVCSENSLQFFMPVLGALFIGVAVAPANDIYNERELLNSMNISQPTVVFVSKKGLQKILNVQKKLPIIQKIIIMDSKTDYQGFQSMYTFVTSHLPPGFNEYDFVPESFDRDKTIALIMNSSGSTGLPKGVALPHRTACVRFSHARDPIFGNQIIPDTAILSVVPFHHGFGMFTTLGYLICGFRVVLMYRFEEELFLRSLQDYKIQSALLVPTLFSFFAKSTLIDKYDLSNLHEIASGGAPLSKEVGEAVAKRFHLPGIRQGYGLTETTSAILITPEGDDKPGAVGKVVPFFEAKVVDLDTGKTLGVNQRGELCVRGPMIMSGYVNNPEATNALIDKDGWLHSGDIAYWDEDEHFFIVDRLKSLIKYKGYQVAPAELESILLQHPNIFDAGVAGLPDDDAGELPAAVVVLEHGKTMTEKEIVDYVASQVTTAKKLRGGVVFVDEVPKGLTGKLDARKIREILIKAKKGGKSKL
Dual specificity protein phosphatase 3, sequence (P51452 whole entry, the tested form may be a part): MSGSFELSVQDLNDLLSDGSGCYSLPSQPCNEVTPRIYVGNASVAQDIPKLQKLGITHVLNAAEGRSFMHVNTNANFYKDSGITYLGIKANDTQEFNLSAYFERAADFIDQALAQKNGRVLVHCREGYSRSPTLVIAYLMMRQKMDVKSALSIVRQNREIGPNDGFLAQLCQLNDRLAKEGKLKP

As for `Cc1ccc2[nH]c(NCc3ccccc3)nc2c1`, the AC50 in assay [1] is 6.87 µM (active). For the same molecule, the EC50 in assay [2] was > 260 µM (inactive); on Wee1-like protein kinase it was > 49.7 µM (not active); in assay [3], > 49.7 µM (not active).

For the molecule `Cn1c(=O)c2c(nc(S)n2Cc2ccccc2Cl)n(C)c1=O`, the Ki in assay [4] is 25.4 µM (inactive).

Consider `Cc1ccc(-c2nc(SCC(=O)Nc3ccccc3OC(F)F)c3c(C)c(C(=O)O)sc3n2)cc1`, for which, in assay [5], the IC50 was 18.8 µM (active).

For the molecule `Cc1cc(C)c2c(c1)C1C=CCC1C(C(=O)O)N2` (centres undefined), the IC50 in assay [6] was > 100 µM (inactive); in [7], > 100 µM (not active); in assay [8] it was 24.7 µM (active); in assay [9], > 100 µM (not active); in assay [10] it was 70.2 µM (active); in assay [11], > 100 µM (inactive).

For `Cc1ccc(C(=O)COC(=O)c2cccs2)cc1`, the EC50 with HT-1080 is > 50 µM (not active); in assay [12], 0.53 µM (active). Besides, in the assay “cells”, the IC50 is 24.3 µM (active).

With `COc1cc(C(c2cc3c(cc2O)OCO3)N2CCCC2)cc(OC)c1OC` (centres undefined), the IC50 in [13] is recorded as > 40 µM (not active).

`CCOC(=O)OCC1OC(C#Cc2ccccc2)C=CC1OC(=O)OCC` (centres undefined): on Cytochrome P450 2C9, the AC50 was 0.0794 µM (inconclusive).

As to `CCN1C(=O)/C(=C/C=C2/Sc3ccccc3N2CCO)SC1=S`, the IC50 in [14] was 13.2 µM (active); in assay [16], 12.1 µM (not active); on Insulin-degrading enzyme, > 56 µM (not active). Moreover, the EC50 with BJ [15] was > 150 µM (not active); in the assay on BJ [17], 28.7 µM (active); in [18] it was 50.2 µM (active); at Beta-galactosidase, 16.7 µM (active); in the assay on BJ [20], 30.4 µM (active). The pIC50 in assay [19] is 4.56.

For the molecule `COc1ccc(Oc2c(Cl)cnn(-c3cccc(C)c3C)c2=O)cc1`, in [21], the IC50 was 12.5 µM (inactive).

Take `OC[C@H]1O[C@@H](n2cnc3c(Nc4ccccc4)ncnc32)[C@H](O)[C@@H]1O` [N6-PHENYLADENOSINE]: the IC50 is 4.73 µM (active) in [22] and 7.83 µM (active) in assay [23].
